Patent publication US12655116B2, “Substituted isophthalic acid diamides” (Bayer Aktiengesellschaft, priority 2020, dated 2026)

Tests used:
AVEFA = test: Pre-emergence herbicidal action against AVEFA; assay type: in vivo, Avena fatua; details: 80 g/ha, pre-emergence; for pest or weed control at 80 g/ha: Avena fatua, 504 h
How it was run: (§1)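 Seeds sown in sandy loam, soil-covered; compound sprayed on soil surface pre-emergence. Application: WP/EC, 600–800 l/ha, 0.2% wetting agent. Readout: visual % damage at 3 weeks.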

VIOTR [1] = test: Pre-emergence herbicidal action against VIOTR; assay type: in vivo, Viola tricolor
How it was run: as §1

PHBPU = test: Pre-emergence herbicidal action against PHBPU; assay type: in vivo, Pharbitis purpurea; details: dosage 80 g/ha; for pest or weed control at 80 g/ha: Ipomoea purpurea, 504 h
How it was run: as §1

LOLRI = test: Pre-emergence herbicidal action against LOLRI; assay type: in vivo, Lolium rigidum; details: 80 g/ha; for pest or weed control at 80 g/ha: Lolium rigidum, 504 h
Text: Seeds of monocotyledonous and dicotyledonous weed plants and crop plants are laid out in sandy loam soil in wood-fiber pots and covered with soil. The compounds of the invention, formulated in the form of wettable powders (WP) or as emulsion concentrates (EC), are then applied to the surface of the covering soil in the form of an aqueous suspension or emulsion at a water application rate equivalent to 600 to 800 l/ha, with addition of 0.2% wetting agent. After the treatment, the pots are placed in a greenhouse and kept under good growth conditions for the trial plants. The damage to the test plants is scored visually after a test period of 3 weeks by comparison with untreated controls (herbicidal activity in percent (%): 100% activity=the plants have died, 0% activity=like control plants). […] The tables below illustrate, in an illustrative manner, the post-emergence herbicidal action of the compounds of the invention, the herbicidal activity being stated in percent.

SETVI [2] = test: Pre-emergence herbicidal action against SETVI; assay type: in vivo, Setaria viridis
How it was run: as §1

MATIN [3] = test: Pre-emergence herbicidal action against MATIN; assay type: in vivo, Matricaria inodora; details: for pest or weed control at 20 g/ha / pest or weed control at 80 g/ha: Tripleurospermum inodorum, 504 h
How it was run: as §1

ECHCG [4] = test: Post-emergence herbicidal action against ECHCG; assay type: in vivo, Echinochloa crus-galli
How it was run: (§2)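 Percent herbicidal action is rated by eye about 3 weeks after treatment against untreated controls, where 100% means dead plants and 0% means like controls. Plants in sandy loam are sprayed on green parts at the one-leaf stage with aqueous WP or EC preparations at 600 to 800 l/ha plus 0.2% wetting agent.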

VERPE = test: Pre-emergence herbicidal action against VERPE; assay type: in vivo, Veronica persica; details: Veronica persica, 504 h, dosage 80 g/ha
How it was run: as §1

MATIN [5] = test: Post-emergence herbicidal action against MATIN; assay type: in vivo, Matricaria inodora; details: Tripleurospermum inodorum, 504 h, dosage 20 g/ha
How it was run: as §2

ALOMY [6] = test: Pre-emergence herbicidal action against ALOMY; assay type: in vivo, Alopecurus myosuroides
How it was run: as §1

AMARE [7] = test: Pre-emergence herbicidal action against AMARE; assay type: in vivo, Amaranthus retroflexus; details: for pest or weed control at 20 g/ha / pest or weed control at 80 g/ha: Amaranthus retroflexus, 504 h
How it was run: as §1

AMARE [8] = test: Post-emergence herbicidal action against AMARE; assay type: in vivo, Amaranthus retroflexus; details: Amaranthus retroflexus, 504 h, 20 g/ha, visual assessment about 3 weeks after treatment, 100% = plants have died, 0% = like control plants
How it was run: as §2

ECHCG [9] = test: Pre-emergence herbicidal action against ECHCG; assay type: in vivo, Echinochloa crus-galli; details: 80 g/ha; for pest or weed control at 80 g/ha: Echinochloa crus-galli, 504 h
How it was run: as §1

SETVI [10] = test: Post-emergence herbicidal action against SETVI; assay type: in vivo, Setaria viridis
How it was run: as §2

ABUTH [11] = test: Pre-emergence herbicidal action against ABUTH; assay type: in vivo, Abutilon theophrasti; details: for pest or weed control at 80 g/ha / pest or weed control at 20 g/ha: Abutilon theophrasti, 504 h; for pest or weed control at 20 g/ha: read-out: Pre-emergence action against ABUTH (herbicidal activity in percent)
How it was run: as §1

DIGSA = test: Pre-emergence herbicidal action against DIGSA; assay type: in vivo, Digitaria sanguinalis
How it was run: as §1

ALOMY [12] = test: Post-emergence herbicidal action against ALOMY; assay type: in vivo, Alopecurus myosuroides; details: visual assessment about 3 weeks after treatment vs untreated controls; for pest or weed control at 5 g/ha / pest or weed control at 20 g/ha: Alopecurus myosuroides, 504 h
How it was run: as §2

VIOTR [13] = test: Post-emergence herbicidal action against VIOTR; assay type: in vivo, Viola tricolor
How it was run: as §2

ABUTH [14] = test: Post-emergence herbicidal action against ABUTH; assay type: in vivo, Abutilon theophrasti; details: Abutilon theophrasti, 504 h, visual assessment about 3 weeks after treatment vs untreated controls
How it was run: as §2

[15] = Viola tricolor, 504 h, dosage 80 g/ha
[16] = Echinochloa crus-galli, 504 h, dosage 20 g/ha
[17] = Alopecurus myosuroides, 504 h, 80 g/ha, pre-emergence, scored visually after 3 weeks vs untreated controls (100% = plants have died, 0% = like control plants)
[18] = 20 g/ha, scored visually after 3 weeks vs untreated controls, 100% = plants have died, 0% = like control plants
[19] = 80 g/ha, scored visually after 3 weeks vs untreated controls, 100% = plants have died, 0% = like control plants
[20] = 80 g/ha, scored visually after 3 weeks vs untreated controls (100% = plants have died, 0% = like control plants)
[21] = dosage 20 g/ha, scored visually after 3 weeks vs untreated controls, 100% = plants have died, 0% = like control plants

## CCCNC(=O)c1c(C(F)(F)F)ccc(C(=O)Nc2nnnn2C)c1Cl [Example 1-136]
AVEFA
  pest or weed control at 80 g/ha: 80%
VIOTR [1]; Viola tricolor, 504 h, dosage 20 g/ha
  pest or weed control at 20 g/ha: 90%
VIOTR [1]; [15]
  pest or weed control at 80 g/ha: 100%
PHBPU
  pest or weed control at 80 g/ha: 80%
LOLRI
  pest or weed control at 80 g/ha: 90%
SETVI [2]; Setaria viridis, 504 h, dosage 80 g/ha
  pest or weed control at 80 g/ha: 80%
MATIN [3]; dosage 20 g/ha
  pest or weed control at 20 g/ha: 90%
MATIN [3]; dosage 80 g/ha
  pest or weed control at 80 g/ha: 100%
ECHCG [4]; Echinochloa crus-galli, 504 h, dosage 5 g/ha
  pest or weed control at 5 g/ha: 80%
ECHCG [4]; [16]
  pest or weed control at 20 g/ha: 90%
VERPE
  pest or weed control at 80 g/ha: 90%
MATIN [5]
  pest or weed control at 20 g/ha: 80%
ALOMY [6]; [17]
  pest or weed control at 80 g/ha: 90%
AMARE [7]; [18]
  pest or weed control at 20 g/ha: 100%
AMARE [7]; [19]
  pest or weed control at 80 g/ha: 100%
AMARE [8]
  pest or weed control at 20 g/ha: 90%
ECHCG [9]
  pest or weed control at 80 g/ha: 90%
SETVI [10]; Setaria viridis, 504 h, dosage 20 g/ha
  pest or weed control at 20 g/ha: 80%
ABUTH [11]; [20]
  pest or weed control at 80 g/ha: 100%
ABUTH [11]; [21]
  pest or weed control at 20 g/ha: 90%
DIGSA; Digitaria sanguinalis, 504 h, dosage 20 g/ha
  pest or weed control at 20 g/ha: 100%
DIGSA; Digitaria sanguinalis, 504 h, dosage 80 g/ha
  pest or weed control at 80 g/ha: 100%
ALOMY [12]; dosage 5 g/ha
  pest or weed control at 5 g/ha: 80%
ALOMY [12]; dosage 20 g/ha
  pest or weed control at 20 g/ha: 90%

## Cn1nnnc1NC(=O)c1ccc(Br)c(C(=O)NCC(F)F)c1Cl [Example 1-182]
AVEFA
  Pre-emergence action against AVEFA in %: 90%
VIOTR [1]; dosage 20 g/ha
  Pre-emergence action against VIOTR in %: 90%
VIOTR [1]; dosage 80 g/ha
  Pre-emergence action against VIOTR in %: 100%
PHBPU
  Pre-emergence action against PHBPU in %: 90%
LOLRI
  Pre-emergence action against LOLRI in %: 80%
SETVI [2]; dosage 20 g/ha
  Pre-emergence action against SETVI in %: 100%
SETVI [2]; dosage 80 g/ha
  Pre-emergence action against SETVI in %: 100%
MATIN [3]; dosage 20 g/ha
  Pre-emergence action against MATIN in %: 90%
MATIN [3]; dosage 80 g/ha
  Pre-emergence action against MATIN in %: 100%
ECHCG [4]; dosage 20 g/ha
  Post-emergence action against ECHCG in %: 80%
ALOMY [6]; 20 g/ha, scored visually after 3 weeks, 100% = plants have died, 0% = like control plants
  Pre-emergence action against ALOMY: 80%
ALOMY [6]; 80 g/ha, pre-emergence, scored visually after 3 weeks vs untreated controls (100% = plants have died, 0% = like control plants)
  Pre-emergence action against ALOMY (herbicidal activity): 100%
AMARE [7]; [18]
  Pre-emergence action against AMARE in %: 100%
AMARE [7]; [20]
  Pre-emergence action against AMARE in %: 100%
VIOTR [13]; 5 g/ha
  Post-emergence action against VIOTR in %: 100%
VIOTR [13]; 20 g/ha
  Post-emergence action against VIOTR in %: 100%
ECHCG [9]
  Pre-emergence action against ECHCG in %: 100%
SETVI [10]; dosage 5 g/ha
  Post-emergence action against SETVI in %: 90%
SETVI [10]; dosage 20 g/ha
  Post-emergence action against SETVI in %: 100%
ABUTH [11]; [20]
  Pre-emergence action against ABUTH (herbicidal activity): 100%
ABUTH [11]; [21]
  Pre-emergence action against ABUTH (herbicidal activity in percent): 100%
DIGSA; dosage 20 g/ha
  Pre-emergence action against DIGSA in %: 100%
DIGSA; dosage 80 g/ha
  Pre-emergence action against DIGSA in %: 100%
ALOMY [12]; dosage 5 g/ha
  Post-emergence action against ALOMY in %: 90%
ALOMY [12]; dosage 20 g/ha
  Post-emergence action against ALOMY in %: 100%

## CCCNC(=O)c1c(Br)ccc(C(=O)Nc2nnnn2CC)c1Cl [Example 2-184]
AVEFA
  pest or weed control at 80 g/ha: 90%
VIOTR [1]; [15]
  pest or weed control at 80 g/ha: 100%
PHBPU
  pest or weed control at 80 g/ha: 90%
LOLRI
  pest or weed control at 80 g/ha: 80%
MATIN [3]; dosage 20 g/ha
  pest or weed control at 20 g/ha: 90%
MATIN [3]; dosage 80 g/ha
  pest or weed control at 80 g/ha: 100%
ECHCG [4]; [16]
  pest or weed control at 20 g/ha: 100%
VERPE
  pest or weed control at 80 g/ha: 100%
ALOMY [6]; [17]
  pest or weed control at 80 g/ha: 100%
ALOMY [6]; Alopecurus myosuroides, pre-emergence, 504 h, 20 g/ha, scored visually after 3 weeks, 100% = plants have died, 0% = like control plants
  pest or weed control at 20 g/ha: 90%
ABUTH [14]; dosage 5 g/ha
  pest or weed control at 5 g/ha: 90%
ABUTH [14]; dosage 20 g/ha
  pest or weed control at 20 g/ha: 90%
AMARE [7]; [18]
  pest or weed control at 20 g/ha: 100%
AMARE [7]; [19]
  pest or weed control at 80 g/ha: 100%
AMARE [8]
  pest or weed control at 20 g/ha: 100%
ECHCG [9]
  pest or weed control at 80 g/ha: 100%
ABUTH [11]; [20]
  pest or weed control at 80 g/ha: 100%
ABUTH [11]; [21]
  pest or weed control at 20 g/ha: 100%
ALOMY [12]; dosage 5 g/ha
  pest or weed control at 5 g/ha: 80%
ALOMY [12]; dosage 20 g/ha
  pest or weed control at 20 g/ha: 100%
